This is an account of results in ChEMBL document CHEMBL1201862, “PubChem BioAssay data set” (2004).

Holding throughout (experiment): growth of human tumour cells (NCI), 48 h
Test [1] relates to T47D.
The subject of test [2] is SK-MEL-2.
The subject of test [3] is SF-539.
The test system of test [4] is DU-145.
In test [5] the test system is SK-MEL-28.
In test [6] the test system is EKVX.
Test [7] deals with RPMI-8226.
Test [8] concerns MDA-MB-231.
Test [9] concerns HCT-116.
The test system of test [10] is SF-268.
Test [11] deals with CCRF-CEM.
Test [12] deals with SK-MEL-5.
The test system of test [13] is M14.
For test [14], the system named is MCF7.
For test [15], the system named is COLO 205.
The subject of test [16] is UO-31.
For test [17], the system named is BT-549.

Each structure is given as a SMILES string.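 Where inhibition never reached the appropriate level, the endpoint shown equals the highest concentration tested. Otherwise, values were interpolated linearly from a five-concentration, 48-hour dose response in 96-well plates. GI50 is the concentration that inhibits growth by half.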 Activity calls are given as the source filed them. Cut-off read from the data, not from the text of the source: active = GI50 up to about 1.1 µM and inactive = higher. Where a SMILES comes first, the peptide text is derived from it. The star is where a group is joined. Cbz = O=C(OCc1ccccc1)*; NHNH2 = NN*

Turning to `C[C@]12C[C@@H](OC(=O)[C@]1(C)O)[C@@H]([C@]1(O)CC[C@H]3[C@@H]4C[C@H]5O[C@]56C[C@H]5O[C@H]5C(=O)[C@]6(C)[C@H]4CC[C@@]31C)C2`, the GI50 in [1], in test [2], in test [3], in test [4], in [5] and in [6] was > 50 µM (inactive) each time. In addition, the GI50 in [7], in [8], in test [9], in test [10], in test [11] and in test [12] was > 50 µM (inactive) each time. Also, the GI50 in [13], in test [14], in test [15] and in [16] was > 50 µM (inactive) throughout.

With `CC(=O)C1(C(=O)C(=[N+]=[N-])S(=O)(=O)c2ccccc2)CC1`, the GI50 was > 100 µM (inactive) in [2]; > 100 µM (inactive) in test [3]; > 100 µM (inactive) in [4]; > 100 µM (inactive) in test [5]; > 100 µM (inactive) in test [6]; 83.2 µM (inactive) in [7]. For the same molecule, the GI50 in test [8] was > 100 µM (inactive); in test [9] it was > 100 µM (inactive); in [10] it was > 100 µM (inactive); in test [11] it was 40.2 µM (inactive); in [12] it was > 100 µM (inactive); in [13], > 100 µM (inactive). Moreover, the GI50 in test [14], in test [15], in [16] and in test [17] was > 100 µM (inactive) throughout.

For the molecule `CCOC(O)(NC(=O)C(C(F)(F)F)C(F)(F)F)C(F)(F)F` (centres undefined), the GI50 in [1], in [2], in test [3], in test [5], in test [6] and in [7] was > 100 µM (inactive) throughout. Moreover, the GI50 in test [9], in test [10], in test [11], in test [12], in test [13] and in [15] was > 100 µM (inactive) throughout. The GI50 in test [16] and in test [17] was > 100 µM (inactive) throughout.

In the case of `COc1cccc(-c2cc(=O)c3cc(N4CCCCC4)ccc3[nH]2)c1`, the GI50 is > 100 µM (inactive) in test [1]; 0.521 µM (active) in test [2]; < 0.01 µM (active) in test [3]; 0.0622 µM (active) in [4]; > 100 µM (inactive) in test [5]; < 0.01 µM (active) in [7]. The GI50 in [8] is 0.0432 µM (active); in test [9] it was < 0.01 µM (active); in test [10], 0.16 µM (active); in test [11], < 0.01 µM (active); in [12], < 0.01 µM (active); in test [13], < 0.0132 µM (active). The GI50 is < 0.01 µM (active) in test [14], < 0.0139 µM (active) in [15] and 7.29 µM (inactive) in [16].

Turning to `CCOC(=O)CCC(NC(=O)OCc1ccccc1)C(=O)NC(CCC(=O)OCC)C(=O)NN` (centres undefined) (Cbz-Glu(OEt)-Glu(OEt)-NHNH2; configuration not given here), the GI50 in test [2], in [5], in test [6], in test [7], in test [8] and in test [9] was > 100 µM (inactive) in each case. Besides, the GI50 in test [12], in test [13], in test [14], in test [15], in test [16] and in [17] was > 100 µM (inactive) throughout.

Turning to `NC1CNC(=O)c2c(Cl)sc(Cl)c21` (centres undefined), the GI50 in [1], in test [2], in test [3], in test [4], in test [5] and in test [6] was > 100 µM (inactive) in each case. Moreover, the GI50 in test [7] was > 100 µM (inactive); in [8], > 100 µM (inactive); in test [9], > 100 µM (inactive); in test [10], > 100 µM (inactive); in [11] it was > 10 µM (inactive); in test [13] it was > 100 µM (inactive). Further, the GI50 in test [14], in test [15] and in test [16] was > 100 µM (inactive) each time.

In the case of `COc1cc(/C=N/N=C(\N)NO)cc(OC)c1OC`, the GI50 in [1] is 36.6 µM (inactive); in test [2], 54.3 µM (inactive); in test [3], 30.5 µM (inactive); in test [4] it was 26.3 µM (inactive); in test [5], 57 µM (inactive); in test [6], 19.6 µM (inactive). For the same molecule, the GI50 in test [7] is 37.2 µM (inactive); in test [8], > 100 µM (inactive); in test [9] it was 32.1 µM (inactive); in test [10], 31.1 µM (inactive); in [11], 31.8 µM (inactive); in test [12], 20.6 µM (inactive). Besides, the GI50 in test [13] is 28.4 µM (inactive); in test [14] it was 22.6 µM (inactive); in test [15], 12.4 µM (inactive); in test [16] it was 33.1 µM (inactive).

`CC(C)CNC(=O)Cn1c2c(c3ccccc31)CCCC2`: the GI50 in test [2] is > 100 µM (inactive); in test [3], > 100 µM (inactive); in [5], > 100 µM (inactive); in [6], 71 µM (inactive); in test [7], 40.6 µM (inactive); in test [9], 27.8 µM (inactive). The GI50 in test [10] is 37.5 µM (inactive); in test [11], 56.4 µM (inactive); in test [12], 64.7 µM (inactive); in test [13] it was > 100 µM (inactive); in test [14] it was > 100 µM (inactive); in test [15], 73.8 µM (inactive). Moreover, the GI50 was 28.3 µM (inactive) in test [16] and > 100 µM (inactive) in [17].

Take `O=c1c2c(F)c(F)c(F)c(F)c2sc2nccn12`: the GI50 in [1] is 0.745 µM (active); in test [2], 19.1 µM (inactive); in test [3] it was 17.5 µM (inactive); in test [4] it was 19.9 µM (inactive); in [5], 23.4 µM (inactive); in [6], 24.7 µM (inactive). Besides, the GI50 in test [7] is 16.7 µM (inactive); in test [8], 20.3 µM (inactive); in test [9], 13.9 µM (inactive); in test [10] it was 18 µM (inactive); in [11] it was 11.3 µM (inactive); in test [12], 18.5 µM (inactive). Also, the values for the GI50 in [13], in [14] and in test [15] were 17.6 µM (inactive), 17.4 µM (inactive) and 17.6 µM (inactive), respectively.

Turning to `COc1cc(/C=C2\N=C(c3ccccc3)N(c3ccc(S(=O)(=O)Nc4nccs4)cc3)C2=O)ccc1O`, the GI50 is 85.5 µM (inactive) in test [1]; > 100 µM (inactive) in [2]; 79.4 µM (inactive) in [3]; > 100 µM (inactive) in test [4]; 63.8 µM (inactive) in [6]; 45 µM (inactive) in [7]. Also, the GI50 in test [9] was 70.3 µM (inactive); in test [10] it was 51.9 µM (inactive); in [11], 70.5 µM (inactive); in test [12], 75.9 µM (inactive); in test [13], > 100 µM (inactive); in test [14], 67.1 µM (inactive). The GI50 in test [15] was > 100 µM (inactive); in test [16], > 100 µM (inactive); in test [17], 73.6 µM (inactive).

As for `COc1ccc(C2=C(OC(=O)N(C)C)c3cccn3-c3cc(Cl)ccc3S2)cc1`, the GI50 in test [1] was 5.3 µM (inactive); in [4] it was > 10 µM (inactive); in test [5] it was > 10 µM (inactive); in test [6], > 10 µM (inactive); in test [7], 2.73 µM (inactive); in test [8], > 10 µM (inactive). In addition, the GI50 in test [10] is > 10 µM (inactive); in [11], 8.07 µM (inactive); in test [12], > 10 µM (inactive); in test [13], > 10 µM (inactive); in test [14] it was 8.51 µM (inactive); in test [15], > 10 µM (inactive).

In the case of `O=c1[nH]nc(-c2ccccc2)n1/N=C/c1ccco1`, the GI50 in test [1], in test [2], in test [3], in [4], in [5] and in test [6] was > 100 µM (inactive) each time. The GI50 in [9] is > 100 µM (inactive); in test [10], > 100 µM (inactive); in test [11] it was > 100 µM (inactive); in [12], > 100 µM (inactive); in test [13], > 100 µM (inactive); in test [14] it was 0.0719 µM (active). Besides, the figures for the GI50 in [15], in [16] and in test [17] were > 100 µM (inactive), > 100 µM (inactive) and 32.6 µM (inactive), respectively.

Consider `NCCCC[C@H](N)C(=O)Nc1ccc(-c2nc3ccccc3s2)cc1Cl`, for which the GI50 was < 0.0478 µM (active) in [1]; 16.8 µM (inactive) in test [2]; 6.78 µM (inactive) in [4]; 7.89 µM (inactive) in test [5]; 5.6 µM (inactive) in [6]; 11.6 µM (inactive) in [8]. Further, the GI50 in test [9] is 0.713 µM (active); in [10], 8.34 µM (inactive); in [11], 3.28 µM (inactive); in test [12], 12.5 µM (inactive); in [13] it was 3.55 µM (inactive); in test [14], < 0.034 µM (active). The GI50 in test [15] is 4.91 µM (inactive); in [16] it was 6.35 µM (inactive).
